Measured values from patent publication US20260116920A1, “HUMAN TRANSFERRIN RECEPTOR BINDING PEPTIDE” (PEPTIDREAM INC., priority 2021, published 2026).
Like-named read-outs stand apart in the source and are kept apart here. Positions of bridges follow the written chain, without caps; N, C: chain ends. Non-standard residues stand in square brackets, D forms with d. Residues, ends and D or L forms follow the SMILES beside them. *: point of attachment. Trp(1-CH2COOH) = N[C@@H](Cc1cn(CC(=O)O)c2ccccc12)C(=O)O; Nle(6-morpholino) = N[C@@H](CCCCN1CCOCC1)C(=O)O; Phe(3-COOH) = N[C@@H](Cc1cccc(C(=O)O)c1)C(=O)O; NH(CH2CH2O)8Me = COCCOCCOCCOCCOCCOCCOCCOCCN*; NMePhe(3-Cl) = CN[C@@H](Cc1cccc(Cl)c1)C(=O)O; 3Pal(6-NH2) = Nc1ccc(C[C@H](N)C(=O)O)cn1; NMeY = CN[C@@H](Cc1ccc(O)cc1)C(=O)O; NH(CH2CH2O)4Me = COCCOCCOCCOCCN*; 3Pal = N[C@@H](Cc1cccnc1)C(=O)O; PEG4 = NCCOCCOCCOCCOCCC(=O)O; Carboxymethyl = O=C(O)C*; X4 = COCC(COC)N*

Biological target: T1, human transferrin receptor (hTfR) (Homo sapiens, UniProt P02786)
T1 construct: made in house
Test: Evaluation of molecular interaction between transferrin receptor (hTfR) and peptide using surface plasmon resonance (SPR)
Format: binding
Protocol: Evaluation Test of Molecular Interaction Between Transferrin Receptor (hTfR) and Peptide Using Surface Plasmon Resonance (SPR)
The intermolecular interactions of various synthesized peptides with the transferrin receptor (hTfR) by surface plasmon resonance (SPR) of the peptides were tested by the methods described below. Specific test methods are shown below.
NTA sensor chip (Global Life Sciences Technologies Japan K.K.) was inserted into BiacoreT200 (Global Life Sciences Technologies Japan K.K.), then the priming operation was performed three times by using running buffer containing: 10 mM HEPES pH 8.0 (Nacalai Tesque, Inc.), 150 mM NaCl (Nacalai Tesque, Inc.), 0.05% Tween 20 (Nacalai Tesque, Inc.), 0.1% BSA (SIGMA-ALDRICH) and 1.0% DMSO (FUJIFILM Wako Pure Chemical Corporation), and equilibrated at a flow rate of 30 μL/min. 350 mM EDTA solution was reacted at a flow rate of 10 μL/min for 60 seconds, 0.5 mM […] solution (Kishida Chemical Co., Ltd.) was reacted at a flow rate of 10 μL/min for 60 seconds, and then the NTA sensor chip was washed with 3 mM EDTA solution (Nacalai Tesque, Inc.) at a flow rate of 10 μL/min for 60 seconds. After mixing 50 μL each of 60 mM EDC solution (Global Life Science Technologies Japan K.K.) and 650 mM NHS solution (Global Life Science Technologies Japan K.K.), the reaction was carried out at a flow rate of 10 μL/min for 420 seconds. 150 μL of 0.5 μM hTfR dimer solution was prepared by dilution with running buffer and reacted at a flow rate of 10 μL/min for 300 seconds to immobilize hTfR on the NTA sensor chip. For the human transferrin receptor (hTfR), recombinant hTfR described in Example 2 of WO2018/124121 was used. After immobilization, capping was performed by reacting with 1.0 M ethanolamine solution (Global Life Sciences Technologies Japan K.K.) at a flow rate of 10 μL/min for 420 seconds. Peptide lysate prepared in DMSO solution to 10 mM was diluted with running buffer to be a final concentration of 10 μM peptide lysate, then peptide solutions of 100 nM, 50 nM, 25 nM, 10 nM, and 5 nM were prepared. Using the above samples, the kinetics of the peptide against hTfR was obtained by SPR measurement.
The kinetic evaluation model was single-cycle kinetics, and curve fitting was performed using Biacore T200 Evaluation Software Version 3.0 (Global Life Science Technologies Japan K.K.). The binding of the peptide to hTfR was evaluated by performing curve fitting on the obtained sensorgram by least squares method and obtaining the KD value.

[1] = surface plasmon resonance, binding to hTfR, KD class symbol, read-out: SPR (KD value)

T1 sequence (P02786 89-760 limits assumed): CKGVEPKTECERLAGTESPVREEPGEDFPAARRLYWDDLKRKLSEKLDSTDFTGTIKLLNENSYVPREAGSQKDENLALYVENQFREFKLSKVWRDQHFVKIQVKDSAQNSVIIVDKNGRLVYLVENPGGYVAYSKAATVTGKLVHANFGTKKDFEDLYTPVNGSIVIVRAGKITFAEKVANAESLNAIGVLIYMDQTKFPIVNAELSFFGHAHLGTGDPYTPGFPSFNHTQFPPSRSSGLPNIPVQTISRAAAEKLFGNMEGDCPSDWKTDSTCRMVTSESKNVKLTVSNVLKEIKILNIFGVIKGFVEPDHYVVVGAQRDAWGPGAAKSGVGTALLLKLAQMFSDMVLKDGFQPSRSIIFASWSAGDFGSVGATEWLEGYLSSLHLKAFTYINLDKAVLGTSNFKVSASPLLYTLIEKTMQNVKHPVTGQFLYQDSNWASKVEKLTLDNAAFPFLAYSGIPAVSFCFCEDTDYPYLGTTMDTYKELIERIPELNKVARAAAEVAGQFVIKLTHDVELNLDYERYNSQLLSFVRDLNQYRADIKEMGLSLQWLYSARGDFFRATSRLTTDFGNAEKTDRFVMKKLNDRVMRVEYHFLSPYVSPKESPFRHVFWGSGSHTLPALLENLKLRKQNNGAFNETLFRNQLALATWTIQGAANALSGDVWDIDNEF

SMILES | Kd [1] [nM] | further results
CC[C@H](C)[C@@H]1NC(=O)[C@H](Cc2ccc(OCC(=O)O)cc2)NC(=O)[C@H](Cc2ccc(N)nc2)NC(=O)[C@H](CC(N)=O)NC(=O)[C@H](Cc2cn(CC(=O)O)c3ccccc23)NC(=O)[C@H](C(C)C)NC(=O)[C@H](Cc2cccc(Cl)c2)N(C)C(=O)[C@H](C(C)C)NC(=O)[C@H](C)NC(=O)CSC[C@@H](C(=O)NCCOCCOCCOCCOCCC(N)=O)NC(=O)[C@H](Cc2ccc(O)cc2)N(C)C(=O)[C@H](Cc2cccc(C(=O)O)c2)NC(=O)[C@H](CCCNC(=N)N)NC(=O)[C@H](CCC(=O)NCCOCCOCCOCCOCCOCCOCCOCCOC)NC(=O)[C@H]([C@@H](C)CC)NC1=O [compound 223] ({CH2CO}-AV[NMePhe(3-Cl)]V[Trp(1-CH2COOH)]N[3Pal(6-NH2)]Y(Carboxymethyl)IIE(NH(CH2CH2O)8Me)R[Phe(3-COOH)][NMeY]C[PEG4]-NH2; thioether N-15) |  | Kd (peptide with linker, surface plasmon resonance, read-out: SPR (KD class for binding to hTfR)): 1 to 100 nM
CC[C@H](C)[C@@H]1NC(=O)[C@H](Cc2ccc(OCC(=O)O)cc2)NC(=O)[C@H](Cc2ccc(O)cc2)NC(=O)[C@H](CC(N)=O)NC(=O)[C@H](Cc2cn(CC(=O)O)c3ccccc23)NC(=O)[C@H](C(C)C)NC(=O)[C@H](Cc2cccc(Cl)c2)N(C)C(=O)[C@H](C(C)C)NC(=O)[C@H](C)NC(=O)CSC[C@@H](C(=O)NCCOCCOCCOCCOCCC(N)=O)NC(=O)[C@H](Cc2ccc(O)cc2)N(C)C(=O)[C@H](Cc2ccccc2)NC(=O)[C@H](CCCCN2CCOCC2)NC(=O)[C@H](CCC(=O)NCCOCCOCCOCCOC)NC(=O)[C@H]([C@@H](C)CC)NC1=O [compound 119] ({CH2CO}-AV[NMePhe(3-Cl)]V[Trp(1-CH2COOH)]NYY(Carboxymethyl)IIE(NH(CH2CH2O)4Me)[Nle(6-morpholino)]F[NMeY]C[PEG4]-NH2; thioether N-15) | < 1 | 
CC[C@H](C)[C@@H]1NC(=O)[C@H](Cc2ccc(OC)cc2)NC(=O)[C@H](Cc2ccc(N)nc2)NC(=O)[C@H](CC(N)=O)NC(=O)[C@H](Cc2c[nH]c3ccccc23)NC(=O)[C@H](C(C)C)NC(=O)[C@H](Cc2cccc(Cl)c2)N(C)C(=O)[C@H](C(C)C)NC(=O)[C@H](C)NC(=O)CSC[C@@H](C(=O)NCCOCCOCCOCCOCCC(N)=O)NC(=O)[C@H](Cc2ccc(O)cc2)N(C)C(=O)[C@H](Cc2ccccc2)NC(=O)[C@H](CCCNC(=N)N)NC(=O)[C@H](CCCNC(=N)N)NC(=O)[C@H]([C@@H](C)CC)NC1=O [compound 57] ({CH2CO}-AV[NMePhe(3-Cl)]VWN[3Pal(6-NH2)]Y(Me)IIRRF[NMeY]C[PEG4]-NH2; thioether N-15) | 1 to 100 | 
CC[C@H](C)[C@@H]1NC(=O)[C@H](Cc2ccc(OCC(=O)O)cc2)NC(=O)[C@H](Cc2ccc(O)cc2)NC(=O)[C@H](CC(N)=O)NC(=O)[C@H](Cc2c[nH]c3ccccc23)NC(=O)[C@H](C(C)C)NC(=O)[C@H](Cc2ccccc2)N(C)C(=O)[C@H](C(C)C)NC(=O)[C@H](C)NC(=O)CSC[C@@H](C(=O)NCCOCCOCCOCCOCCC(N)=O)NC(=O)[C@H](Cc2ccc(O)cc2)N(C)C(=O)[C@H](Cc2ccc(O)cc2)NC(=O)[C@H](CCCNC(=N)N)NC(=O)[C@H](CCCNC(=N)N)NC(=O)[C@H]([C@@H](C)CC)NC1=O [compound 45] | 1 to 100 | 
CC[C@H](C)[C@@H]1NC(=O)[C@H](Cc2ccc(O)cc2)NC(=O)[C@H](Cc2ccc(O)cc2)NC(=O)[C@H](CC(N)=O)NC(=O)[C@H](Cc2c[nH]c3ccc(Cl)cc23)NC(=O)[C@H](C(C)C)NC(=O)[C@H](Cc2ccc(F)cc2)N(C)C(=O)[C@H](C(C)C)NC(=O)[C@H](C)NC(=O)CSC[C@@H](C(N)=O)NC(=O)[C@H](Cc2ccc(O)cc2)N(C)C(=O)[C@H](Cc2ccccc2)NC(=O)[C@H](CCCCNC(=O)CCOCCOCCOCCOC)NC(=O)[C@H](CCCNC(=N)N)N(C)C(=O)[C@H]([C@@H](C)CC)NC1=O [compound 3] | 1 to 100 | 
CC[C@H](C)[C@@H]1NC(=O)[C@H](Cc2cccnc2)NC(=O)[C@H](Cc2ccc(O)cc2)NC(=O)[C@H](CC(N)=O)NC(=O)[C@H](Cc2c[nH]c3ccccc23)NC(=O)[C@H](C(C)C)NC(=O)[C@H](Cc2cccc(Cl)c2)N(C)C(=O)[C@H](C(C)C)NC(=O)[C@H](C)NC(=O)CSC[C@@H](C(=O)NCCOCCOCCOCCOCCC(N)=O)NC(=O)[C@H](Cc2ccc(O)cc2)N(C)C(=O)[C@H](Cc2ccccc2)NC(=O)[C@H](CCC(=O)NCCOCCOCCOCCOCCOCCOCCOCCOC)NC(=O)[C@H](CCCNC(=N)N)NC(=O)[C@H]([C@@H](C)CC)NC1=O [894_0360] ({CH2CO}-AV[NMePhe(3-Cl)]VWNY[3Pal]IIRE(NH(CH2CH2O)8Me)F[NMeY]C[PEG4]-NH2; thioether N-15) |  | Kd (KD class for binding to hTfR by SPR, peptide with the linker shown in the same line, 'low signal indicates no activity', read-out: SPR): 1 to 100 nM
CC[C@H](C)[C@@H]1NC(=O)[C@H](Cc2ccc(OCC(=O)O)cc2)NC(=O)[C@H](Cc2ccc(O)cc2)NC(=O)[C@H](CC(N)=O)NC(=O)[C@H](Cc2cn(CC(=O)O)c3ccccc23)NC(=O)[C@H](C(C)C)NC(=O)[C@H](Cc2cccc(Cl)c2)N(C)C(=O)[C@H](C(C)C)NC(=O)[C@H](C)NC(=O)CSC[C@@H](C(=O)NCCOCCOCCOCCOCCC(N)=O)NC(=O)[C@H](Cc2ccc(O)cc2)N(C)C(=O)[C@H](Cc2ccccc2)NC(=O)[C@H](CCCNC(=N)N)NC(=O)[C@H](CCCNC(=N)N)NC(=O)[C@H]([C@@H](C)CC)NC1=O [compound 44] | 1 to 100 | 
CC[C@H](C)[C@@H]1NC(=O)[C@H](Cc2ccc(OC)cc2)NC(=O)[C@H](Cc2ccc(N)nc2)NC(=O)[C@H](CC(N)=O)NC(=O)[C@H](Cc2cn(CC(=O)O)c3ccccc23)NC(=O)[C@H](C(C)C)NC(=O)[C@H](Cc2cccc(Cl)c2)N(C)C(=O)[C@H](C(C)C)NC(=O)[C@H](C)NC(=O)CSC[C@@H](C(=O)NCCOCCOCCOCCOCCC(N)=O)NC(=O)[C@H](Cc2ccc(O)cc2)N(C)C(=O)[C@H](Cc2cccc(C(=O)O)c2)NC(=O)[C@H](CCCNC(=N)N)NC(=O)[C@H](CCCNC(=N)N)NC(=O)[C@H]([C@@H](C)CC)NC1=O [compound 72] ({CH2CO}-AV[NMePhe(3-Cl)]V[Trp(1-CH2COOH)]N[3Pal(6-NH2)]Y(Me)IIRR[Phe(3-COOH)][NMeY]C[PEG4]-NH2; thioether N-15) | 1 to 100 | 
CC[C@H](C)[C@@H]1NC(=O)[C@H](Cc2ccc(OCC(=O)O)cc2)NC(=O)[C@H](Cc2ccc(O)cc2)NC(=O)[C@H](CC(N)=O)NC(=O)[C@H](Cc2c[nH]c3ncccc23)NC(=O)[C@H](C(C)C)NC(=O)[C@H](Cc2cccc(Cl)c2)N(C)C(=O)[C@H](C(C)C)NC(=O)[C@H](C)NC(=O)CSC[C@@H](C(=O)NCCOCCOCCOCCOCCC(N)=O)NC(=O)[C@H](Cc2ccc(O)cc2)N(C)C(=O)[C@H](Cc2cccc(C(=O)NCCOCCOCCOCCOC)c2)NC(=O)[C@H](CCCNC(=N)N)NC(=O)[C@H](CCC(=O)NCCOCCOCCOCCOC)NC(=O)[C@H]([C@@H](C)CC)NC1=O [compound 130] | 1 to 100 | 
CC[C@H](C)[C@@H]1NC(=O)[C@H](Cc2ccc(OCC(=O)O)cc2)NC(=O)[C@H](Cc2ccc(O)cc2)NC(=O)[C@H](CC(N)=O)NC(=O)[C@H](Cc2c[nH]c3ccccc23)NC(=O)[C@H](C(C)C)NC(=O)[C@H](Cc2cccc(Cl)c2)N(C)C(=O)[C@H](C(C)C)NC(=O)[C@H](C)NC(=O)CSC[C@@H](C(=O)NCCOCCOCCOCCOCCC(N)=O)NC(=O)[C@H](Cc2ccc(O)cc2)N(C)C(=O)[C@H](Cc2cccc(C(=O)O)c2)NC(=O)[C@H](CCCNC(=N)N)NC(=O)[C@H](CCC(=O)NC(COC)COC)NC(=O)[C@H]([C@@H](C)CC)NC1=O [compound 114] ({CH2CO}-AV[NMePhe(3-Cl)]VWNYY(Carboxymethyl)IIE(X4)R[Phe(3-COOH)][NMeY]C[PEG4]-NH2; thioether N-15) | < 1 | 
